# Laboratory results reported in patent US9801940B2, “Oral care compositions” (Colgate-Palmolive Company, priority 2010, dated 2017).
# System: representative oral bacteria S. mutans, F. nucleatum, V. parvula, A. naslundii, P. gingivitis
# Experiment: Bactericidal properties in in vitro tests
# Assay type: cell-based
# Excerpt: As referred to herein, the expressions “extract of magnolia” or “magnolia extract” denote an extract from dried cortex, or bark, of a plant from the Magnoliaceae family, such as Magnolia officinalis, (hereinafter “magnolia”), or a synthetic or semi-synthetic equivalent of such an extract or an active component thereof. […] In other embodiments, the oral composition comprises an extract of magnolia. […] It should be noted that any plant from the Magnoliaceae family is suitable for extracting the active ingredients used in the present embodiment.
row,SMILES,bactericidal properties against representative oral bacteria
1,C=CCc1ccc(O)c(-c2ccc(O)c(CC=C)c2)c1 [honokiol],demonstrated bactericidal properties
2,C=CCc1ccc(O)c(-c2cc(CC=C)ccc2O)c1 [magnolol],demonstrated bactericidal properties
3,"CCCc1ccc(O)c(-c2ccc(O)c(CCC)c2)c1 [tetrahydrohonokiol, 3′,5-dipropylbiphenyl-2,4′-diol]",demonstrated bactericidal properties
4,"CCCc1ccc(O)c(-c2cc(CCC)ccc2O)c1 [tetrahydromagnolol, 5,5′-dipropylbiphenyl-2,2′-diol]",demonstrated bactericidal properties
